Data set [1] relates to Staphylococcus Aureus ATCC 6538. In words: Bacterial growth inhibition test in culture broth. Also on record: key to inhibition of S. aureus ATCC 6538 growth / inhibition of S. aureus ATCC 6538: − growth; + inhibition. The data set is classed as cell-based. Conditions: for inhibition of S. aureus ATCC 6538: Table 2. How it is done:
Serial dilutions of known titre of the two products SOS-Ag and Katoxyn, the latter containing Ag in the form of metallic silver (silver […]® collodial chemical), have been placed directly in contact with the test microorganism (Staphylococcus Aureus ATCC 6538) for incubation in culture broth under agitation. The effect of the substances on cellular growth has been measured by evaluating the absence of turbidity in the culture medium. The anti bacterial activity has been verified by the seeding of 1 ml of culture broth in an […] medium, with observations at 7, 14, 21, 28 days from the beginning of the experiment (tables 1 and 2).

Data set [2] has the same test system. Description: Bacterial growth inhibition test by diffusion in agar (seeded by inclusion, 8 mm wells). In kind it is cell-based. From the text:
The inhibition of bacterial growth has been, in this case, evaluated on a confluent bacterial culture of Staphylococcus aureus ATCC 6538 obtained on solid medium, according to the seeding method for inclusion. Serial dilutions of the test products, of known Ag titre, have been deposited inside 8 mm diameter wells formed in the medium in direct contact with the bacteria Staphylococcus aureus ATCC 6538. The antibacterial activity of the products under test have been evaluated, after appropriate incubations, by measuring the halos of inhibition around each well (tables 3 and 4).

The subject of the next data set is Candida albicans. The following applies: preservative in cosmetic preparations; cited from earlier work.
The subject of the next data set is Pseudomonas aeruginosa. Conditions: preservative in cosmetic preparations; cited from earlier work.
For a further data set, the system named is Staphylococcus aureus. The following applies: preservative in cosmetic preparations; cited from earlier work.
Data set [3] can be described thus: Stability in solid state and aqueous solution. In kind it is physicochemical. The following applies: obtained according to example 3.
Data set [4] concerns S. aureus ATCC 6538. Description: Diffusion method in agar, cellulose disks of 13 mm. Conditions: 72 hours at 37° C. In kind it is cell-based, Staphylococcus aureus.
Protocol: (§1) The characterisation of the antibacterial activity has been carried out using the method of diffusion in agar, placing the substances in contact with confluent bacterial cultures on solid medium. The experiments have been carried out according to two distinct methods: 1) wetting sterile cellulose disks, 13 mm in diameter with 100 μl of solutions at serial dilutions of the product of known Ag titre. […] 100 μl of the solutions containing the products at known concentrations of Ag are placed on the base of the wells, and the bacteriocidal activity is observed after 72 hours of incubation at 37° C. against a blank constituted of just the solvent used for the solubilisation of the products.
Data set [5] in a line: Solubility of the product. The data set is classed as physicochemical. The following applies: product of example 1.
Data set [6] has as its system S. aureus ATCC 6538. Description: Diffusion method in agar, seeded by inclusion, 8 mm wells, 72 h. Conditions: 72 hours at 37° C. The data set is classed as cell-based, Staphylococcus aureus.
Protocol: as §1

The values that follow come from patent US7183315B2, “Silver salts of sucrose-octasulphate” (Interalia S.R.L., priority 2001, dated 2007).

As to `CC1(C)S[C@@H]2[C@H](NC(=O)[C@H](N)c3ccccc3)C(=O)N2[C@H]1C(=O)O` [ampicillin, reference compound], the “inhibition of S. aureus ATCC 6538 growth” value is given as “+” in data set [1] (positive control, Table 1, 7 days); “+” in data set [1] (positive control, Table 1, 14 days); “+” in [1] (positive control, Table 1, 21 days); “+” in [1] (positive control, Table 1, 28 days). In addition, the “inhibition of S. aureus ATCC 6538” value in [1] (positive control, 7 days) is reported as “+”; in data set [1] (positive control, 14 days) it was “+”; in data set [1] (positive control, 21 days) it was “+”; in data set [1] (positive control, 28 days) it was “+”. Moreover, the Halo of inhibition in [2] (Concentration 5 I.U./ml, positive control) stood at 11 mm; in data set [2] (Concentration 10 I.U./ml, positive control) it was 20 mm; in data set [2] (Concentration 20 I.U./ml, positive control), 39 mm.

For the compound `[Ag]` [silver], the “concentration of silver showing activity” value in the data set with Candida albicans, in the data set with Pseudomonas aeruginosa and in the data set on Staphylococcus aureus was 10^−5 M throughout.

For “silver salts of sucrose-octasulphate [SOS-Ag]”, the “inhibition of S. aureus ATCC 6538 growth” value in data set [1] (Ag titre 1 × 10^−2 M, 7 days) is given as “+”; in data set [1] (Ag titre 1 × 10^−2 M, 14 days), “+”; in data set [1] (Ag titre 1 × 10^−2 M, 21 days), “+”; in data set [1] (Ag titre 1 × 10^−2 M, 28 days), “+”; in data set [1] (Ag titre 1 × 10^−3 M, 7 days) it was “+”; in [1] (Ag titre 1 × 10^−3 M, 14 days), “+”. The “inhibition of S. aureus ATCC 6538 growth” value in data set [1] (Ag titre 1 × 10^−3 M, 21 days) is listed as “+”; in [1] (Ag titre 1 × 10^−3 M, 28 days), “+”; in data set [1] (Ag titre 1 × 10^−4 M, 7 days), “−”; in data set [1] (Ag titre 1 × 10^−4 M, 14 days), “−”; in data set [1] (Ag titre 1 × 10^−4 M, 21 days), “−”; in data set [1] (Ag titre 1 × 10^−4 M, 28 days) it was “−”. Further, the “inhibition of S. aureus ATCC 6538 growth” value was “−” in [1] (Ag titre 1 × 10^−5 M, 7 days); “−” in data set [1] (Ag titre 1 × 10^−5 M, 14 days); “−” in data set [1] (Ag titre 1 × 10^−5 M, 21 days); “−” in [1] (Ag titre 1 × 10^−5 M, 28 days); “−” in [1] (Ag titre 5 × 10^−4 M, 7 days); “−” in data set [1] (Ag titre 5 × 10^−4 M, 14 days). The “inhibition of S. aureus ATCC 6538 growth” value in data set [1] (Ag titre 5 × 10^−4 M, 21 days) is given as “−”; in data set [1] (Ag titre 5 × 10^−4 M, 28 days), “−”. Also, the “concentration of Ag at which the product has been effective / active” value in [1] (S. aureus ATCC 6538, summary of tables 1-4 (culture broth and agar diffusion)) stood at 1 mM. For the same compound, the Halo of inhibition is 13 mm in [2] (Ag titre 1 × 10^−3 M, 8 mm wells); 0 mm in data set [2] (Ag titre 1 × 10^−4 M, 8 mm wells); 0 mm in data set [2] (Ag titre 5 × 10^−4 M, 8 mm wells); 15.3 mm with S. aureus ATCC 6538 [4] (Ag titre 10^−2 M); 12 mm in the data set on S. aureus ATCC 6538 [4] (Ag titre 10^−3 M); 0 mm with S. aureus ATCC 6538 [4] (Ag titre 10^−4 M). Moreover, the Halo of inhibition is given as 0 mm with S. aureus ATCC 6538 [4] (Ag titre 10^−5 M); 14.5 mm in the data set on S. aureus ATCC 6538 [6] (Ag titre 10^−2 M); 14 mm in the data set with S. aureus ATCC 6538 [6] (Ag titre 10^−3 M); 0 mm with S. aureus ATCC 6538 [6] (Ag titre 10^−4 M); 0 mm with S. aureus ATCC 6538 [6] (Ag titre 10^−5 M). Moreover, the “stability in aqueous solution” value in data set [3] (aqueous solution) is reported as “good stability”. Besides, in data set [3] (solid state), the “stability in the solid state” value is listed as “good stability”. The “Solubility in organic solvents” value in data set [5] (organic solvents) is “particularly insoluable”. For the same compound, the Solubility in water result in [5] (water) was “very soluble”.
